Laboratory results taken from ChEMBL document CHEMBL1201862, “PubChem BioAssay data set” (2004).
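Test compounds were applied to cells in 96-well plates for 48 hours at 5 doses. Here, GI50 denotes the concentration required for 50% inhibition of growth.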 Calls of active or inactive are those of the source. Rule as the data show it: active = GI50 up to about 1.1 µM and inactive = higher.

Key:
Experiment in all cases: growth of human tumour cells (NCI), 48 h
NCI/ADR-RES = system: NCI/ADR-RES
786-0 = system: 786-0
A549 = system: A549
A498 = system: A498
MCF7 = system: MCF7
CAKI-1 = system: CAKI-1
TK-10 = system: TK-10
Malme-3M = system: Malme-3M
OVCAR-3 = system: OVCAR-3
U-251 = system: U-251
OVCAR-8 = system: OVCAR-8
HCT-15 = system: HCT-15
UACC-62 = system: UACC-62
MDA-N = system: MDA-N
MOLT-4 = system: MOLT-4
HCC 2998 = system: HCC 2998
SNB-75 = system: SNB-75
HT-29 = system: HT-29
UACC-257 = system: UACC-257
SW-620 = system: SW-620

Measured: GI50

O=C(CC(O)(C(F)(F)F)C(F)(F)Cl)CC(O)(C(F)(F)F)C(F)(F)Cl (stereo not given)
inactive: NCI/ADR-RES 2.58 µM | 786-0 3.47 µM | A549 2.37 µM | A498 2.29 µM | MCF7 2.79 µM | CAKI-1 2.74 µM | TK-10 3.08 µM | Malme-3M 1.14 µM | OVCAR-3 1.62 µM | U-251 1.88 µM | OVCAR-8 2.88 µM | UACC-62 1.65 µM | MDA-N 3.21 µM | MOLT-4 6.27 µM | HCC 2998 3.04 µM | SNB-75 2.82 µM | HT-29 2.33 µM | UACC-257 1.32 µM | SW-620 3.86 µM
1.79 µM: HCT-15

Nc1ccc2c(c1)Cc1ccccc1-2
inactive: NCI/ADR-RES > 100 µM | 786-0 > 100 µM | A549 65 µM | A498 49 µM | MCF7 > 100 µM | CAKI-1 88.3 µM | TK-10 > 100 µM | Malme-3M > 100 µM | OVCAR-3 45.4 µM | U-251 > 100 µM | OVCAR-8 > 100 µM | UACC-62 59.4 µM | MDA-N > 100 µM | MOLT-4 34.7 µM | HCC 2998 > 100 µM | SNB-75 31.6 µM | HT-29 > 100 µM | UACC-257 > 100 µM | SW-620 > 100 µM
62.2 µM: HCT-15

CSC(=Nc1nnc(-c2ccc([N+](=O)[O-])cc2)s1)SC
> 95.5 µM: HCT-15
inactive: NCI/ADR-RES 33.5 µM | 786-0 20.7 µM | A549 46.8 µM | A498 31.4 µM | MCF7 36.6 µM | CAKI-1 16.7 µM | TK-10 16.6 µM | Malme-3M > 74.1 µM | OVCAR-3 57.3 µM | U-251 21.4 µM | OVCAR-8 34.4 µM | UACC-62 25.8 µM | MDA-N > 72.9 µM | MOLT-4 > 100 µM | HCC 2998 > 79.6 µM | SNB-75 11.9 µM | HT-29 > 100 µM | UACC-257 > 93.1 µM | SW-620 > 100 µM

O=c1[nH]c(=O)n(C2CC(O)C(CO)O2)cc1I (stereo not given)
> 100 µM: HCT-15
inactive: NCI/ADR-RES > 100 µM | 786-0 > 100 µM | A549 > 73.1 µM | A498 > 100 µM | MCF7 18.5 µM | CAKI-1 63.8 µM | TK-10 > 100 µM | Malme-3M > 100 µM | OVCAR-3 > 100 µM | U-251 > 100 µM | OVCAR-8 > 100 µM | UACC-62 > 100 µM | MDA-N > 100 µM | MOLT-4 75.7 µM | HCC 2998 > 82.6 µM | SNB-75 > 100 µM | HT-29 > 100 µM | UACC-257 > 100 µM | SW-620 > 100 µM

Nc1nc(N)c2nnn(C[C@H]3CC[C@@H](CO)C3)c2n1
> 100 µM: HCT-15
inactive: NCI/ADR-RES > 100 µM | 786-0 > 100 µM | A549 > 100 µM | A498 > 100 µM | MCF7 > 100 µM | CAKI-1 > 100 µM | TK-10 > 100 µM | Malme-3M > 100 µM | OVCAR-3 > 100 µM | U-251 > 100 µM | OVCAR-8 > 100 µM | UACC-62 > 100 µM | MDA-N > 100 µM | MOLT-4 > 100 µM | HCC 2998 > 100 µM | SNB-75 > 100 µM | HT-29 > 100 µM | UACC-257 > 100 µM | SW-620 > 100 µM

Fc1nc(-c2c3ccccc3c3sc4ccccc4n23)nc(N2CCOCCOCCOCCOCC2)n1
inactive: NCI/ADR-RES 56.8 µM | 786-0 32.8 µM | A549 > 100 µM | A498 91.4 µM | MCF7 > 100 µM | CAKI-1 > 100 µM | TK-10 54.2 µM | Malme-3M > 100 µM | OVCAR-3 63.1 µM | U-251 44.8 µM | OVCAR-8 40.2 µM | UACC-62 > 100 µM | MDA-N > 100 µM | MOLT-4 66.4 µM | HCC 2998 > 100 µM | SNB-75 2.56 µM | HT-29 46.6 µM | UACC-257 > 100 µM | SW-620 > 100 µM
> 100 µM: HCT-15

Cc1cc2nc(C=C(C(F)(F)F)C(F)(F)F)oc2cc1C
active: MCF7 0.472 µM
inactive: NCI/ADR-RES 2.51 µM | 786-0 1.96 µM | A549 5.12 µM | A498 > 10 µM | CAKI-1 2.42 µM | TK-10 2.45 µM | Malme-3M 1.97 µM | OVCAR-3 1.95 µM | U-251 3.33 µM | OVCAR-8 2.46 µM | UACC-62 3.32 µM | MDA-N > 10 µM | MOLT-4 1.85 µM | HCC 2998 3.08 µM | SNB-75 4.55 µM | HT-29 3.04 µM | UACC-257 > 10 µM | SW-620 1.73 µM
3.37 µM: HCT-15

CCn1c(=O)ccc2ccc(N(CCO)CCO)nc21
> 100 µM: HCT-15
inactive: NCI/ADR-RES > 100 µM | 786-0 > 100 µM | A549 > 100 µM | A498 > 100 µM | MCF7 > 100 µM | CAKI-1 > 100 µM | TK-10 > 100 µM | Malme-3M > 100 µM | OVCAR-3 > 100 µM | U-251 > 100 µM | OVCAR-8 > 100 µM | UACC-62 > 100 µM | MDA-N > 100 µM | MOLT-4 97.7 µM | HCC 2998 > 100 µM | SNB-75 > 100 µM | HT-29 > 100 µM | UACC-257 > 100 µM | SW-620 > 100 µM

CC(CNC(N)=O)NC(N)=O (stereo not given)
> 100 µM: HCT-15
inactive: NCI/ADR-RES > 100 µM | 786-0 > 100 µM | A549 > 100 µM | A498 > 100 µM | MCF7 > 100 µM | CAKI-1 > 100 µM | TK-10 > 100 µM | Malme-3M > 100 µM | OVCAR-3 > 100 µM | U-251 > 100 µM | OVCAR-8 > 100 µM | UACC-62 > 100 µM | MDA-N > 100 µM | MOLT-4 > 100 µM | HCC 2998 > 100 µM | SNB-75 > 100 µM | HT-29 > 100 µM | UACC-257 > 100 µM | SW-620 > 100 µM
